pEC50: −log10 of the molar value. Where “and” joins values, the source holds several entries; their conditions need not be identical. Identical values can stand only once. Entries after “also recorded” stand apart in the source; their conditions may differ. Like-named read-outs stand apart in the source and are kept apart here.
Assays:
human GLP-2 receptors = target: T1, human GLP-2 receptors (Homo sapiens, UniProt O95838, D470N); experiment: GLP-2 receptor efficacy assay (cAMP AlphaScreen); format: cell-based
T1 sequence (O95838 1-553 D470N): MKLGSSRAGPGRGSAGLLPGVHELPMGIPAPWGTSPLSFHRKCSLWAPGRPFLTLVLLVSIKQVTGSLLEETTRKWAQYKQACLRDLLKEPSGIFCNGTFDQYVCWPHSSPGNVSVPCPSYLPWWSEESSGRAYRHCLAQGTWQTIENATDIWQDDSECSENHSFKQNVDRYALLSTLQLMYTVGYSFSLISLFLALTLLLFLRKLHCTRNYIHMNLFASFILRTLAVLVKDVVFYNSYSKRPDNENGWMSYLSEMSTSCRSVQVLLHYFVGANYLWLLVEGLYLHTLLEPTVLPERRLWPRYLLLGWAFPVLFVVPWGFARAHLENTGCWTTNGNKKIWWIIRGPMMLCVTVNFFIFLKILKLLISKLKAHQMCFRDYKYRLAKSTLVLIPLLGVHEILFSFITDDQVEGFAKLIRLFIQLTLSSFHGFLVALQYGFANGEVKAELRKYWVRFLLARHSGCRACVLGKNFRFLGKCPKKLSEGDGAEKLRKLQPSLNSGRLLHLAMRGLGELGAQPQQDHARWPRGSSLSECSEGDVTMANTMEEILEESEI
Excerpt: The hGLP2-R was purchased from MRC-geneservice, Babraham, Cambridge as an Image clone: 5363415 (11924-117). For subcloning into a mammalian expression vector, primers for subcloning were obtained from DNA-Technology, Risskov, Denmark. The 5' and 3' primers used for the PCR reaction include terminal restriction sites for cloning and the context of the 5' primer is modified to a Kozak consensus without changing the sequence of the product encoded by the ORF. A standard PCR reaction was run using Image clone 5363415 (11924-117) as a template with the above mentioned primers and Polymerase Herculase II Fusion in a total vol. of 50µl. The generated PCR product was purified using GFX PCR and Gel band purification kit, digested with restriction enzymes and cloned into the mammalian expression vector using Rapid DNA Ligation Kit. Ligation reaction was transformed to XL10 Gold Ultracompetent cells and colonies were picked for DNA production using Endofree Plasmid maxi kit. Subsequent sequence analysis was conducted by MWG Eurofins, Germany.
HEK293 cells were transfected using the Lipofectamine PLUS transfection method. The day before transfection, HEK293 cells were seeded in two T75 flasks at a density of 2 x 10^6 cells / T75 flask in cell culturing medium without antibiotics. On the day of transfection, cells were washed with 1x DPBS and medium was replaced with Optimem to a volume of 5 mL / T75 flask before addition of Lipofectamine-plasmid complexes were added gently and drop wise to the cells in T75 flasks and replaced with growth medium after 3 hours and again to growth medium supplemented with 500µg/mL G418 after 24 hours. After 4 weeks in G418 selection, clones were picked and tested in a functional assay.
The cAMP AlphaScreen® assay from Perkin Elmer was used to quantitate the cAMP response to activation of the GLP2 receptor. […] Table 2: GLP-2R EC50 measurements

[1] = Phase 2 clinical trial, PK profile of ZP1848 and metabolites in SBS patients; format: in vivo, human; conditions: for Conc.: plasma
Description: A phase 2 clinical trial was conducted to i.a. determine the PK profile of ZP1848 and metabolites in human SBS patients.
The study was designed as a randomized, cross-over and double-blinded with three different doses of ZP1848 (10 mg, 1 mg, 0.1 mg) in 16 SBS patients.
The 18 SBS patients (16 patients completed the study) were randomized evenly and in a double-blinded fashion to each of the six cross-over dose level combinations: 10 mg/1 mg, 10 mg/0.1 mg, 1 mg/10 mg, 1 mg/0.1 mg, 0.1 mg/10 mg, 0.1 mg/1 mg of ZP1848. The patients were injected once daily (QD) subcutaneously with the above doses of ZP1848.
Blood samples for PK analysis were collected on several study visits throughout the study period: the study comprised a 1st baseline balance study (4 days), a 1st treatment period (21 days) including a 1st treatment balance study (last 4 days of 1st treatment period), followed by a wash-out period (at least 4 weeks); and a 2nd baseline balance study (4 days), a 2nd treatment period (21 days) including a 2nd treatment balance study (last 4 days of 2nd treatment period) and a follow-up period (at least 4 weeks).
PK sampling was performed at visit 11 (1st treatment, balance study) and visit 17 (second day of 2nd baseline study - after a wash out period), and again at visit 25 (2nd treatment balance study) and at visit 29 (last day of follow-up period).
At day visit 11 and visit 25 a full PK profile in steady state was investigated. PK samples were taken prior to injection of ZP1848, and at the following time points (+/- 10 minutes) after trial product administration: 1h, 2h, 4h, 6h, 8h, 10h, 12h and 24h. Each PK sample contained 2 mL of blood, resulting in a total of […] blood drawn for PK purposes. The plasma sample was immediately stored at -80°C after sampling.
Plasma samples were analyzed after immunoaffinity extraction followed by liquid chromatography mass spectrometry (LC-MS/MS). For each patient plasma concentrations were used for calculation of the pharmacokinetic parameters using the non-compartmental approach in Excel. Plasma terminal elimination half-life (T½) was determined as In(2)/ke where ke is the magnitude of the slope of the log linear regression of the log concentration versus time profile during the terminal phase.

[2] = plasma of healthy subjects after SC injections (once daily or once weekly) or single IV infusion of glepaglutide; conditions: human, up to 168 hours post dose
[3] = plasma samples from SBS patients injected once daily (QD) subcutaneously with ZP1848; conditions: human, up to Day 56
SBS patients = experiment: Fecal wet weight output in SBS-IF/SBS-II patients (metabolic balance studies); format: in vivo, human; conditions: change from baseline
Description: The study was designed as a randomized, cross-over and double-blinded with three different doses of ZP1848 (10 mg, 1 mg, 0.1 mg) in 16 SBS patients. The study protocol was approved by the Danish Medical Agency and The Danish Committee on Health Research Ethics.
The 18 SBS patients were randomized evenly and in a double-blinded fashion to each of the six cross-over dose level combinations: 10 mg/1 mg, 10 mg/0.1 mg, 1 mg/10 mg, 1 mg/0.1 mg, 0.1 mg/10 mg, 0.1 mg/1 mg of ZP1848. The SBS patient group comprised 9 females, 9 males; hereof 13 SBS-IF patients and 5 SBS-II patients. Mean age was 62 years, mean short bowel length was 110 cm, and two SBS-IF patients had > 50% colon in continuity. The patients were injected once daily subcutaneously with the above doses of ZP1848.
The aim of this study was to evaluate efficacy of ZP1848 on fecal wet weight output in patients with SBS-II and SBS-IF and thus the absolute change from baseline in wet weight of fecal output as measured by metabolic balance studies prior to and on the […] of each treatment period.

Beagle Dogs = experiment: 39-week subcutaneous administration to beagle dogs with 6-week recovery, intestine length and weight; format: in vivo; conditions: vs controls
Description: ZP1848 (0.25, 1 or 5 mg/kg/day) was given for 39 weeks subcutaneously to beagle dogs (22 to 24 weeks). Vehicle was used as the control. Recovery from any effect was evaluated during a 6 week recovery period. The study was conducted in accordance with the applicable sections of the United Kingdom Animals (Scientific Procedures) Act 1986, Amendment Regulations 2012 (the Act).
After 39 weeks the dogs were sacrificed and all animals were subject to a detailed necropsy. The length of the small and large intestines were measured separately and recorded in centimeters. The entire length of the gastrointestinal tract (starting at the duodenum and ending at the rectum) was removed and trimmed of any excessive mesentery, connective or adipose tissue and the measurements for the small and large intestine recorded by laying the small intestine and large intestine on a clean surface and measured with a tape measure. The sections required for histopathology were left unopened and flushed through with water. The remainder were opened, cleaned with water, carefully blotted dry prior to weighing. On completion of length and weight measurements, the gastrointestinal tract was processed and fixed in 10% Neutral Buffered Formalin, as per standard necropsy practice for this species.

Wistar rats = experiment: Intestinotrophic effects after 26 weeks of daily SC dosing in rats; format: in vivo
Description: Wistar rats were dosed subcutaneously (SC) with vehicle, 1, 3 and 10 mg/kg ZP1848 on a daily basis for 26 weeks. Further sub-groups of control and high-dose animals were allowed a 6-week recovery period following completion of the dosing period. […] The length and the weight of the small and large intestines were measured at necropsy as indicators of intestinotrophic effects and the intestinal tract was evaluated histologically.

[4] = background statement; cited from earlier work
[5] = females, 5 mg/kg/day SC, 39 weeks
[6] = females, end of six-week recovery period
[7] = males, 5 mg/kg/day SC, 39 weeks
[8] = males, end of six-week recovery period
[9] = females, 10 mg/kg SC daily, 26 weeks, main study animals
[10] = females, 10 mg/kg, recovery animals (6-week recovery)
[11] = males, 10 mg/kg SC daily, 26 weeks, main study animals
[12] = males, 10 mg/kg, recovery animals (6-week recovery)

## H-HGEGSFSSELSTILDALAARDFIAWLIATKITDKKKKKK-NH2 [ZP1846]
Human GLP-2 receptors
  pEC50: 9.59

## H-HGEGTFSSELATILDALAARDFIAWLIATKITDKK-OH [ZP2711]
Human GLP-2 receptors
  pEC50: 10.14
Human GLP-2 receptors; in words, relative to ZP1848
  in vitro potency: comparable to ZP1848
[1]; in words, relative to ZP1848 after administration of ZP1848
  plasma level: in the same range as that of ZP1848
[1]; Day 0 (visit 11 or 25, treatment balance study), ZP1848 SC once daily, individual subjects
  Conc.: 0.131 nM and 0.543 nM
[1]; Day 28-56 (visit 17 or 29, after wash-out/follow-up), individual subjects
  Conc.: 0.0326 nM and 0.0614 nM
[1]; terminal, from Day 0 and wash-out/follow-up concentrations, individual subjects
  Half-life: 240 h

## H-HGEGTFSSELATILDALAARDFIAWLIATKITDKKK-OH [ZP2949]
Human GLP-2 receptors
  pEC50: 9.96

## H-HGEGTFSSELATILDALAARDFIAWLIATKITDKKKKKK-NH2
[2]
  fragment found: ZP2469 (ZP18481-34), major; also recorded: ZP2711 (ZP18481-35), major
[3]
  fragment found: ZP2469, major; also recorded: ZP2711, major

## H-HGEGTFSSELATILDALAARDFIAWLIATKITDKKKKKK-NH2 [ZP1848] [listing 1 of 2 here]
SBS patients; IF (n=11), 0.1 mg SC once daily
  Changes in Absolute Fecal Wet Weight Output (Means): 196 g/day
SBS patients; IF (n=11), 1 mg + 10 mg pooled
  Changes in Absolute Fecal Wet Weight Output (Means): -741 g/day
SBS patients; IF (n=11), 1 mg SC once daily
  Changes in Absolute Fecal Wet Weight Output (Means): -587 g/day
SBS patients; IF (n=11), 10 mg SC once daily
  Changes in Absolute Fecal Wet Weight Output (Means): -894 g/day
SBS patients; II (n=5), 0.1 mg SC once daily
  Changes in Absolute Fecal Wet Weight Output (Means): -37 g/day
SBS patients; II (n=5), 1 mg + 10 mg pooled
  Changes in Absolute Fecal Wet Weight Output (Means): -570 g/day
SBS patients; II (n=5), 1 mg SC once daily
  Changes in Absolute Fecal Wet Weight Output (Means): -303 g/day
SBS patients; II (n=5), 10 mg SC once daily
  Changes in Absolute Fecal Wet Weight Output (Means): -837 g/day
SBS patients; II+IF (n=16), 0.1 mg SC once daily
  Changes in Absolute Fecal Wet Weight Output (Means): 173 g/day
SBS patients; II+IF (n=16), 1 mg + 10 mg pooled
  Changes in Absolute Fecal Wet Weight Output (Means): -713 g/day
SBS patients; II+IF (n=16), 1 mg SC once daily
  Changes in Absolute Fecal Wet Weight Output (Means): -592 g/day
SBS patients; II+IF (n=16), 10 mg SC once daily
  Changes in Absolute Fecal Wet Weight Output (Means): -833 g/day
Beagle Dogs; [5]
  increase in small intestine length: 37%
  increase in small intestine weight: 80%
Beagle Dogs; [6]
  increase in small intestine length: 19%
  increase in small intestine weight: 34%
Beagle Dogs; [7]
  increase in small intestine length: 46%
  increase in small intestine weight: 103%
Beagle Dogs; [8]
  increase in small intestine length: 16%
  increase in small intestine weight: 78%
Wistar rats; [9]
  SI length, percentage increase relative to control group: 47%
  SI weight, percentage increase relative to control group: 238%
Wistar rats; [10]
  SI length, percentage increase relative to control group: 45%
  SI weight, percentage increase relative to control group: 101%
Wistar rats; in words, 1, 3 and 10 mg/kg SC daily, 26 weeks
  length and weight of the small intestines: dose-related significant (p<0.01) increases
Wistar rats; in words, 26 weeks SC daily
  length and weight of the large intestine: slightly increased
Wistar rats; in words, histology, 26 weeks SC daily
  mucosal hyperplasia of the duodenum, jejunum and ileum: dose-related increase
Wistar rats; [11]
  SI length, percentage increase relative to control group: 38%
  SI weight, percentage increase relative to control group: 190%
Wistar rats; [12]
  SI length, percentage increase relative to control group: 39%
  SI weight, percentage increase relative to control group: 85%

## H-HGEGTFSSELATILDALAARDFIAWLIATKITDKKKKKK-NH2 [ZP1848] [listing 2 of 2 here]
Human GLP-2 receptors
  pEC50: 9.52

## lixisenatide
[4]
  Half-life: 2 to 4 h

Reference: patent EP4796171A2 (Zealand Pharma A/S, priority 2017, dated 2018)
